Assay results published in US20210137961A1, “Compositions and Methods for Treating Dry Eye Diseases” (priority 2017, published 2021).
In brackets after ≈: the same amount, converted by molar mass. Like-named read-outs stand apart in the source and are kept apart here.

Legend:
S. pneumoniae = assay: MIC against S. pneumoniae (30 species); assay type: cell-based
CA-MRSA = assay: MIC against CA-MRSA; assay type: cell-based, Staphylococcus aureus; settings: N 30
phospholipase = assay: Phospholipase inhibition in other cell lines; assay type: cell-based
P. acnes = assay: MIC against P. acnes; assay type: cell-based
H. influenzae = assay: MIC against H. influenzae (30 species); assay type: cell-based
Moraxella catarrhalis = assay: MIC against Moraxella catarrhalis; assay type: cell-based; settings: N 21
pathogenic bacteria = assay type: cell-based
Mycobacterium avium = assay: MIC against Mycobacterium avium; assay type: cell-based; settings: N 30
Mycoplasma pneumoniae = assay: MIC against Mycoplasma pneumoniae; assay type: cell-based
Mycoplasma hominis = assay: MIC against Mycoplasma hominis; assay type: cell-based; settings: N 13
Streptococcus mitis = assay: MIC against Streptococcus mitis; assay type: cell-based; settings: N 73
Legionella pneumophila = assay type: cell-based
Neisseria gonorrhoeae = assay: MIC against Neisseria gonorrhoeae; assay type: cell-based; settings: N 34
[1] = speed of uptake and ultimate tissue concentration
[2] = MIC in the presence of serum; assay type: cell-based; settings: 10% serum
[3] = Corneal permeability, Franz-Cell Diffusion Apparatus; assay type: in vitro ADME, bovine (calf)
Method: EXAMPLE. Corneal Permeability. Corneal permeability is determined using conventional protocols. Briefly, corneal permeability is determined on freshly excised bovine (calf) cornea using a Franz-Cell Diffusion Apparatus generally with n=3/group. Freshly excised calf cornea are stored until use in hydrating solution containing glutathione and buffer. The Apparatus includes a donor chamber on the top where a predetermined volume of the formulation is pipetted and a jacketed receptor cell with a sampling side arm. The joint between the donor and receptor cell is upward-convex, mimicking the shape of the cornea. The corneal membrane is placed on the ball joint with the cornea facing the donor chamber. The Apparatus is clamped to secure the cells with the donor and receptor chambers aligned. […] The volume is recorded. […] Test samples are added in rapid succession by depositing 200 μL of the formulation into each donor chamber using a calibrated pipet and the times recorded. […] Flux can be calculated by the formula: J=Q/(A·t), where Q is the quantity (micrograms) of compound traversing the membrane in time t (minutes), and A is the area of exposed membrane in cm^2. […] After completion of the diffusion, corneas are weighed to determine the quantity of bound test compound in the cornea, and the corneal thicknesses of each cornea is measured at the point of diffusion (the center) using Vernier calipers. […]

Listeria monocytogenes = assay: MIC against Listeria monocytogenes; assay type: cell-based; settings: N 10
MSSA = assay: MIC against MSSA (31 species); assay type: cell-based
[4] = Protein binding in plasma; assay type: in vitro ADME
[5] = system: phagocytized L. monocytogenes; assay type: cell-based
[6] = system: Haemophilus parainfluenzae; assay: MIC against Haemophilus parainfluenzae; assay type: cell-based; settings: N 11
Chlamydophila pneumoniae = assay: MIC against Chlamydophila pneumoniae; assay type: cell-based

## CC[C@H]1OC(=O)[C@@](C)(F)C(=O)[C@H](C)[C@@H](O[C@@H]2O[C@H](C)C[C@H](N(C)C)[C@H]2O)[C@](C)(OC)C[C@@H](C)C(=O)[C@H](C)[C@H]2N(CCCCn3cc(-c4cccc(N)c4)nn3)C(=O)O[C@]12C [Solithromycin, solithromycin]
S. pneumoniae
  I = intermediate susceptibility: 0%
  MIC50: 2 ng/mL (≈ 2.37 nM)
  MIC90: 120 ng/mL (≈ 142 nM)
  MIC Range: ≤0.001-0.25 ^ μg/ml
  NS = not susceptible: 0%
  S = susceptible: 100%
CA-MRSA
  MIC50: 120 ng/mL (≈ 142 nM)
  MIC90: 120 ng/mL (≈ 142 nM)
  MIC Range: 60 to 120 ng/mL
phospholipase; after dosing is stopped
  reversibility of phospholipase inhibition: rapidly reversible
phospholipase; other cell lines, read-out: IC50 for phospholipase inhibition
  IC50: 100 µM
P. acnes; P. acnes
  MIC 50%: 15 ng/mL (≈ 17.8 nM)
P. acnes; P. acnes (51 species)
  MIC 90%: 60 ng/mL (≈ 71 nM)
  MIC Range: ≤2 to 250 ng/mL
H. influenzae
  I = intermediate susceptibility: 0%
  MIC50: 2000 ng/mL (≈ 2370 nM)
  MIC90: 2000 ng/mL (≈ 2370 nM)
  MIC Range: 1000 to 4000 ng/mL
  NS = not susceptible: 0%
  S = susceptible: 100%
Moraxella catarrhalis
  MIC50: 120 ng/mL (≈ 142 nM)
  MIC90: 120 ng/mL (≈ 142 nM)
  MIC Range: ≤8 to 500 ng/mL
Pathogenic bacteria
  activity against Azi resistant strains: active against all Azi resistant strains tested
  potency relative to Azi: 8-16 fold
Pathogenic bacteria; greater activity
  activity relative to conventional macrolides: 10 fold
Pathogenic bacteria; intracellular
  intracellular activity relative to Azi: 10 fold
Mycobacterium avium
  MIC50: 1000 ng/mL (≈ 1180 nM)
  MIC90: 1000 ng/mL (≈ 1180 nM)
  MIC Range: 1000 ng/mL (≈ 1180 nM)
Mycoplasma pneumoniae; Mycoplasma pneumoniae (38 strains)
  MIC90: 0.125 ng/mL (≈ 0.148 nM)
Mycoplasma pneumoniae; Mycoplasma pneumoniae, N 38
  MIC50: 0.032 ng/mL (≈ 0.0379 nM)
  MIC90: 0.125 ng/mL (≈ 0.148 nM)
  MIC Range: ≤6.3e-05 to 500 ng/mL
Mycoplasma hominis
  MIC50: 4 ng/mL (≈ 4.73 nM)
  MIC90: 8 ng/mL (≈ 9.47 nM)
  MIC Range: 2 to 8 ng/mL
Streptococcus mitis
  MIC50: ≤30 ng/mL
  MIC90: 60 ng/mL (≈ 71 nM)
  MIC Range: ≤0.03-0.25^ μg/mL
Legionella pneumophila; Legionella pneumophila (30 strains)
  MIC90: ≤15 ng/mL
Legionella pneumophila; Legionella pneumophila, N 30
  MIC50: ≤15 ng/mL
  MIC90: ≤15 ng/mL
  MIC Range: ≤15 ng/mL
Neisseria gonorrhoeae
  MIC50: 60 ng/mL (≈ 71 nM)
  MIC90: 120 ng/mL (≈ 142 nM)
  MIC Range: 30 to 250 ng/mL
[1]
  tissue distribution relative to Azi: 10 fold
[2]
  change in MIC in the presence of serum: 2 fold
[3]; bovine cornea, Franz cell
  time after administration at which compound is observed in receptor fluid: ≤ 1 h
[3]; within 1 h of administration
  concentration in receptor fluid: > 1000 ng/mL
Listeria monocytogenes
  MIC50: 30 ng/mL (≈ 35.5 nM)
  MIC90: 30 ng/mL (≈ 35.5 nM)
  MIC Range: 30 ng/mL (≈ 35.5 nM)
MSSA
  I = intermediate susceptibility: 0%
  MIC50: 15 ng/mL (≈ 17.8 nM)
  MIC90: 30 ng/mL (≈ 35.5 nM)
  MIC Range: 4 to 64000 ng/mL
  NS = not susceptible: 6%
  S = susceptible: 94%
[4]
  protein binding in plasma: 86%
[5]
  activity against phagocytized bacteria, fold greater: 50-100 fold
[5]; phagocytized L. monocytogenes
  potency relative to azithromycin: 50 fold
[6]
  MIC50: 2000 ng/mL (≈ 2370 nM)
  MIC90: 2000 ng/mL (≈ 2370 nM)
  MIC Range: 1000 to 2000 ng/mL
Chlamydophila pneumoniae; Chlamydophila pneumoniae (10 strains)
  MIC90: 250 ng/mL (≈ 296 nM)
Chlamydophila pneumoniae; Chlamydophila pneumoniae, N 10
  MIC50: 250 ng/mL (≈ 296 nM)
  MIC90: 250 ng/mL (≈ 296 nM)
  MIC Range: 250 to 1000 ng/mL
